Test results reported in ChEMBL document CHEMBL1143153, “BACE-1 inhibitors part 1: identification of novel hydroxy ethylamines (HEAs)” (Bioorg Med Chem Lett, 2008).

Key:
Beta-secretase 1 [1] = target: T1, Beta-secretase 1 (Homo sapiens, UniProt P56817); assay: Inhibition of BACE1
Beta-secretase 1 [2] = target: T1, Beta-secretase 1; assay: Inhibition of BACE1 expressed in SHSY5Y cells assessed as reduction of amyloid beta 40 production; type: cell-based, SH-SY5Y
Beta-secretase 2 = target: T2, Beta-secretase 2 (Homo sapiens, UniProt Q9Y5Z0); assay: Inhibition of BACE2
T2 sequence (Q9Y5Z0 whole entry): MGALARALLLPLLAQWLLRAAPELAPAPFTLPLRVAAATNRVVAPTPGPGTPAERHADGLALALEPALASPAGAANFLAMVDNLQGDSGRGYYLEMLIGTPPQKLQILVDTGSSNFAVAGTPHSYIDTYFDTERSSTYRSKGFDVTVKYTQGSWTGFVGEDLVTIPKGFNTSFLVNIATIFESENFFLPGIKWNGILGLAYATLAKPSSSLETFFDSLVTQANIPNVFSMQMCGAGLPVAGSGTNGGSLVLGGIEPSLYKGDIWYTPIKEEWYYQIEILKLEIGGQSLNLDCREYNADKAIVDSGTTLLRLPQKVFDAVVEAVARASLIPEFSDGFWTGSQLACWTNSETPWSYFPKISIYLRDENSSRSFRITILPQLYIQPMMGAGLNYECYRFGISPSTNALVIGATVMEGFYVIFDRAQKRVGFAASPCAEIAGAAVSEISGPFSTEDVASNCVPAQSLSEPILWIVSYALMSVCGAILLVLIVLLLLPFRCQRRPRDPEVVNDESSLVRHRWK

Cathepsin D = Cathepsin D (Homo sapiens, UniProt P07339); assay: Inhibition of cathepsin D
Sequence of Cathepsin D (P07339 65-162 limits assumed): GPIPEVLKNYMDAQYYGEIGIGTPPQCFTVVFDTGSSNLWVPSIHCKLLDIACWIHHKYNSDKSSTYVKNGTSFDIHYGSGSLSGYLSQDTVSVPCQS
Sequence of Cathepsin D (P07339 169-412 limits assumed): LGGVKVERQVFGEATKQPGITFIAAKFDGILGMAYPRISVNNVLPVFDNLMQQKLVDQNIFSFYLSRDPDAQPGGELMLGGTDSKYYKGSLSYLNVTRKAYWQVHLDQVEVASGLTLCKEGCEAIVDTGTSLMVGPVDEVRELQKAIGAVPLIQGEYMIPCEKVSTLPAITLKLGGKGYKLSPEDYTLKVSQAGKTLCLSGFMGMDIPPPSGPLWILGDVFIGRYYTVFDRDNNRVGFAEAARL

Beta-secretase 1 [3] = target: T1, Beta-secretase 1; type: cell-based, SH-SY5Y

T1 sequence (P56817 whole entry): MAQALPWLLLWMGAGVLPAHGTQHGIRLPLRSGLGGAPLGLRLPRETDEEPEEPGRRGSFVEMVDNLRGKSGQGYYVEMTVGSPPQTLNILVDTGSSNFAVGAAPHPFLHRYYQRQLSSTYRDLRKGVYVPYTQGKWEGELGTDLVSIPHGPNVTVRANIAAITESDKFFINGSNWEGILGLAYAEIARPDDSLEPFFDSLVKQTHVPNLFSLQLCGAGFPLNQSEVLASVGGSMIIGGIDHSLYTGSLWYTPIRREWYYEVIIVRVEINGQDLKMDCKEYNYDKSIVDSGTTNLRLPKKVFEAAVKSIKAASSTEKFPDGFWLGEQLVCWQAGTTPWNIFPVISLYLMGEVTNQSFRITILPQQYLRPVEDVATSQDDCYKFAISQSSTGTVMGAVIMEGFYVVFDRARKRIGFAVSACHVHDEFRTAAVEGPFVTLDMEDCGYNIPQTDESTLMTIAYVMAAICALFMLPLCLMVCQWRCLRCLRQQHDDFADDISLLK

Compound	IC50 (Beta-secretase 1 [1]) [nM]	IC50 (Beta-secretase 1 [2]) [nM]	IC50 (Beta-secretase 2) [nM]	IC50 (Cathepsin D) [nM]	IC50 (Beta-secretase 1 [3]) [nM]
CCOc1cc(C(=O)N[C@@H](Cc2ccccc2)[C@H](O)CN[C@@H](C)C(=O)NC2CCCCC2)cc(N2CCCC2=O)c1	59	970	5130	7940	1420
C[C@H](NC[C@@H](O)[C@H](Cc1ccccc1)NC(=O)c1cc(N2CCCC2)cc(N2CCCC2=O)c1)C(=O)NC1CCCCC1	860		8790	9280	
C[C@H](NC[C@H](O)[C@H](Cc1ccccc1)NC(=O)c1cccc(S(C)(=O)=O)c1)C(=O)NC1CCCCC1	> 500000				
CCCOc1cc(C(=O)N[C@@H](Cc2ccccc2)[C@H](O)CN[C@@H](C)C(=O)NC2CCCCC2)cc(N2CCCC2=O)c1		1690	8240	47100	1380
CC(C)C[C@H](NC(=O)c1cccc(S(C)(=O)=O)c1)[C@H](O)CN[C@@H](C)C(=O)NC1CCCCC1	> 500000				
CC(C)CNc1cc(C(=O)N[C@@H](Cc2ccccc2)[C@H](O)CN[C@@H](C)C(=O)NC2CCCCC2)cc(N2CCCC2=O)c1	180		650	3090	
COc1cc(C(=O)N[C@@H](Cc2ccccc2)[C@H](O)CN[C@@H](C)C(=O)NC2CCCCC2)cc(N2CCCC2=O)c1	745		28600	30000	
CCOc1cc(C(=O)N[C@@H](Cc2ccccc2)[C@H](O)CN[C@@H](C)C(=O)NC2CCCCC2)cc(N2CCCC2)c1	1450		12900	6170	
CCCc1cc(C(=O)N[C@@H](Cc2ccccc2)[C@H](O)CN[C@@H](C)C(=O)NC2CCCCC2)cc(N2CCCC2=O)c1	72	990	1580	4570	690
CC(C)Nc1cc(C(=O)N[C@@H](Cc2ccccc2)[C@H](O)CN[C@@H](C)C(=O)NC2CCCCC2)cc(N2CCCC2=O)c1	39	330	830	5410	280
CCCCCOc1cc(C(=O)N[C@@H](Cc2ccccc2)[C@H](O)CN[C@@H](C)C(=O)NC2CCCCC2)cc(N2CCCC2=O)c1	32		400	430	
CCCCCS(=O)(=O)c1cccc(C(=O)N[C@@H](Cc2ccccc2)[C@H](O)CN[C@@H](C)C(=O)NC2CCCCC2)c1			3600	600	
C[C@@H](C(=O)NC1CCCCC1)N(C)C[C@@H](O)[C@H](Cc1ccccc1)NC(=O)c1cccc(S(C)(=O)=O)c1	> 500000				
CC(C)Oc1cc(C(=O)N[C@@H](Cc2ccccc2)[C@H](O)CN[C@@H](C)C(=O)NC2CCCCC2)cc(N2CCCC2=O)c1	120	1130	4790	12300	1180
CC(=O)Nc1ccc(C(=O)N[C@@H](Cc2ccccc2)[C@H](O)CN[C@@H](C)C(=O)NC2CCCCC2)cc1	62000		> 100000	> 100000	
C[C@H](NC[C@@H](O)[C@H](Cc1ccccc1)NC(=O)c1cccc(N2CCCS2(=O)=O)c1)C(=O)NC1CCCCC1	1900		> 21000	10000	
